Blank lines part the entries; values can stand above or below the compound they belong to.
Test: solvent given as SMILES

Compound: CC(C)(C)c1ccc2c(c1)c1cc(C(C)(C)C)ccc1n2-c1ccc(C#Cc2cccc(C#Cc3ccc(-n4c5ccc(C(C)(C)C)cc5c5cc(C(C)(C)C)ccc54)cc3)c2)cc1
- fluorescence lifetime (in CC#N): 5.51 ns
- fluorescence lifetime (in CCCCC): 1.38 ns
- fluorescence lifetime (in CO): 4.88 ns
- fluorescence lifetime (in Cc1ccccc1): 1.65 ns
- fluorescence lifetime (in ClC(Cl)Cl): 2.51 ns
- fluorescence lifetime (in ClCCl): 3.62 ns

Compound: Nc1ccc2c(c1)C(=O)N(C13C[C@H]4C[C@@H](C1)C[C@@H](C3)C4)C2=O
- fluorescence lifetime (in C1CCCCC1): 10.7 ns
- fluorescence lifetime (in C1CCOC1): 18.2 ns
- fluorescence lifetime (in CC#N): 19 ns
- fluorescence lifetime (in CCOC(C)=O): 17 ns
- fluorescence lifetime (in CO): 9.49 ns
- fluorescence lifetime (in CS(C)=O): 22.4 ns
- fluorescence lifetime (in Cc1ccccc1): 17.3 ns
- fluorescence lifetime (in ClCCl): 24.6 ns

Compound: C(=C\c1nc(/C=C/c2ccc(-n3c4ccccc4c4ccccc43)cc2)nc(/C=C/c2ccc(-n3c4ccccc4c4ccccc43)cc2)n1)/c1ccc(-n2c3ccccc3c3ccccc32)cc1
- fluorescence lifetime (in C1CCOC1): 3.31 ns
- fluorescence lifetime (in CC#N): 2.03 ns
- fluorescence lifetime (in Cc1ccccc1): 3.87 ns
- fluorescence lifetime (in ClCCl): 4.03 ns

- fluorescence lifetime (in CC1CCCCC1): 3.12 ns
- fluorescence lifetime (in CC#N): 6.09 ns
- fluorescence lifetime (in CO): 0.742 ns
- fluorescence lifetime (in O): 0.999 ns
Compound: COC(=O)C([NH3+])Cc1ccc2oc(-c3ccncc3)nc2c1 (configuration not stated)

- fluorescence lifetime (in CCO): 2.01 ns
Compound: c1ccc(-c2nnc(-c3ccc(-n4c5ccccc5c5ccccc54)cc3)o2)cc1

- fluorescence lifetime (in O): 0.4 ns
Compound: NC(=O)C1=CN([C@H]2C[C@H](O)[C@@H](COP(=O)([O-])OP(=O)([O-])OC[C@H]3O[C@@H](n4cnc5c(N)ncnc54)C[C@@H]3O)O2)C=CC1

Compound: Cc1ccc(C2=C3C=CC(C#Cc4ccccc4)=[N+]3[B-](F)(F)n3c(Cl)ccc32)cc1
- fluorescence lifetime (in C1CCCCC1): 4.31 ns
- fluorescence lifetime (in C1CCOC1): 4.24 ns
- fluorescence lifetime (in C1COCCO1): 4.43 ns
- fluorescence lifetime (in CCOC(C)=O): 4.34 ns
- fluorescence lifetime (in CO): 4.25 ns
- fluorescence lifetime (in Cc1ccccc1): 4.45 ns
- fluorescence lifetime (in ClC(Cl)Cl): 4.73 ns

Compound: Cc1cc(C)c(C2=[N+]3C(=Cc4c(C)cc(C)n4[B-]3(F)F)c3ccccc32)[nH]1
- fluorescence lifetime (in C1CCOC1): 3.75 ns
- fluorescence lifetime (in CC#N): 4.34 ns
- fluorescence lifetime (in CCCCCC): 7.17 ns
- fluorescence lifetime (in CO): 4.98 ns
- fluorescence lifetime (in Cc1ccccc1): 6.14 ns
- fluorescence lifetime (in ClCCl): 6.4 ns

Compound: N#Cc1cc(N2c3ccccc3Sc3ccccc32)cc(N2c3ccccc3Sc3ccccc32)c1
- fluorescence lifetime (in Cc1ccccc1): 22.6 ns

- fluorescence lifetime (in C1CCCCC1): 2.04 ns
- fluorescence lifetime (in CC#N): 3.27 ns
Compound: CC(C)c1ccc(/C=C/c2nc3ccc(N(C)C)cc3s2)cc1

- fluorescence lifetime (in c1cc(-c2cccc(-n3c4ccccc4c4ccccc43)c2)cc(-n2c3ccccc3c3ccccc32)c1): 5.47 ns
- fluorescence lifetime (in c1cc(-n2c3ccccc3c3ccccc32)cc(-n2c3ccccc3c3ccccc32)c1): 5.47 ns
Compound: O=c1c2ccccc2n2c3ccccc3c(=O)c3cc(-c4ccccc4)cc1c32

Compound: Nc1cc(N)cc(-c2nc3ccccc3s2)c1
- fluorescence lifetime (in C1CCCCC1): 4.63 ns
- fluorescence lifetime (in C1COCCO1): 4.09 ns
- fluorescence lifetime (in CC#N): 4.14 ns
- fluorescence lifetime (in CC(C)O): 6.4 ns
- fluorescence lifetime (in CCOC(C)=O): 3.84 ns
- fluorescence lifetime (in CCOCC): 3.2 ns
- fluorescence lifetime (in CO): 2.07 ns
- fluorescence lifetime (in O): 1.32 ns

- fluorescence lifetime (in C1CCCCC1): 2.2 ns
Compound: CN(C)c1ccc2nc(-c3ccc(/C=N/c4ccccc4)cc3)sc2c1

- fluorescence lifetime (in C1CCOC1): 4.14 ns
Compound: COc1cc2c(cc1-c1ccc(N(c3ccccc3)c3ccccc3)cc1)Cc1c3c(c4c(c1-2)-c1cc(OC)c(-c2ccc(N(c5ccccc5)c5ccccc5)cc2)cc1C4)C(=O)N(CCC(C)C)C3=O

- fluorescence lifetime (in ClCCl): 2.5 ns
Compound: CCCCCCCCCCCCNc1cccc2[n+]1[B-](F)(F)n1c(c3cccc4cccc1c43)=N2

Compound: CC1=C(c2cccs2)C(C)=[N+]2C1=C(c1ccc(O)cc1)c1c(C)c(-c3cccs3)c(C)n1[B-]2(F)F
- fluorescence lifetime (in Cc1ccccc1): 3.8 ns

- fluorescence lifetime (in ClCCl): 0.1 ns
Compound: N#C/C(=C(/C#N)c1ccc(-c2ccncc2)cc1)c1ccc(-c2ccncc2)cc1

- fluorescence lifetime (in ClCCl): 89.3 ns
Compound: CC(C)(C)NC(=O)c1ccc(-c2ccc(N3c4ccccc4Oc4ccccc43)cc2)c2ccc3c4ccc(F)cc4c4cc(F)ccc4c3c12

- fluorescence lifetime (in ClCCl): 0.75 ns
Compound: c1ccc2c(c1)c1ccc3cccc4c3c1c2c1c2cccc3ccc5c6ccccc6c(c5c32)c41

- fluorescence lifetime (in c1ccccc1): 7.2 ns
Compound: CN(C)c1ccc2ccc3oc(=O)c(-c4ccccc4)nc3c2c1

- fluorescence lifetime (in C1CCOC1): 6.8 ns
- fluorescence lifetime (in CC#N): 3.5 ns
- fluorescence lifetime (in CCCCCC): 16 ns
Compound: CC1=N/C(=C\c2ccc(C#N)c(N(C)C)c2)C(=O)N1C

- fluorescence lifetime (in CC#N): 3.5 ns
Compound: CCNc1cc2oc(=O)cc(C)c2cc1C

— the Deep4Chem optical property database
